Our source for the IC50 values is ChEMBL document CHEMBL4387741, “Optimization of novel reversible Bruton's tyrosine kinase inhibitors identified using Tethering-fragment-based screens” (Bioorg Med Chem, 2019).

For the test, the target named is Tyrosine-protein kinase BTK (Homo sapiens, UniProt Q06187). As to the kind of experiment: biochemical.

Where only a bound is given, the exact number is not on record here.

Chain of Tyrosine-protein kinase BTK (Q06187 whole entry): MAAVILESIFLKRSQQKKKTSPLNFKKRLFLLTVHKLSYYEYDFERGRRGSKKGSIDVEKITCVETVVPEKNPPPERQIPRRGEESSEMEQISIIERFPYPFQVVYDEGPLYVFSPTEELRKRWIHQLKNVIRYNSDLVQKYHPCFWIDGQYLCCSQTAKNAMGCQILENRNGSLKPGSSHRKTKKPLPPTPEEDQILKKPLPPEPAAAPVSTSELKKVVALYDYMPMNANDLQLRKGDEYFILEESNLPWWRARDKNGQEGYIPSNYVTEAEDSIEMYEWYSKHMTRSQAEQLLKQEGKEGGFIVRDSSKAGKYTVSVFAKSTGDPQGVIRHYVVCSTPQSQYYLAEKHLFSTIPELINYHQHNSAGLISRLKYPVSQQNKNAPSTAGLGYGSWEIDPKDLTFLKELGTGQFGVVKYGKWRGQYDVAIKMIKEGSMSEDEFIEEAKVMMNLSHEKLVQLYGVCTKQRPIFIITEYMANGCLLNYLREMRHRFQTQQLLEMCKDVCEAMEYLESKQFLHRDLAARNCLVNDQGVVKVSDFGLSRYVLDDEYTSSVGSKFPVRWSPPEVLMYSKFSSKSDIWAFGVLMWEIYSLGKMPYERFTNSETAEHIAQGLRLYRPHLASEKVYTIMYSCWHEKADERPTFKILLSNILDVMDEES
Description: Reversible inhibition of recombinant full-length N-terminal 6-His-tagged human BTK expressed in baculovirus infected Sf21 insect cells using fluorescent-labeled polyGAT peptide as substrate incubated for 30 mins by TR-FRET assay

As usually defined, the IC50 is the concentration needed to halve the response being measured. Regarding `O=C(Nc1cccc(F)c1)Nc1cccc(C2CCCN(c3ncnc4[nH]ccc34)C2)c1` (stereo unspecified), the midpoint of inhibition, the IC50, lay at 1.2 µM. This lies in the single-digit micromolar range.
The figure for `CC(C)(C#N)c1ccccc1NC(=O)Nc1cccc(C2CCCN(c3ncnc4[nH]ccc34)C2)c1` (racemic) is more than 10 µM.
For the compound `O=C(Nc1cccc(C2CCCN(c3ncnc4[nH]ccc34)C2)c1)Nc1ccccc1F` (stereo unspecified), the IC50 was determined as 0.5 µM.
Under `O=C(Nc1ccccc1)Nc1cccc(CCNc2ncnc3[nH]ccc23)c1` stands 8.3 µM; under `c1cc(Nc2nc3ccccc3[nH]2)cc(C2CCCN(c3ncnc4[nH]ccc34)C2)c1` (stereo unspecified), 4.1 µM.
The figure for `O=C(Nc1ccncc1)Nc1cccc(C2CCCN(c3ncnc4[nH]ccc34)C2)c1` (stereo unspecified) is more than 10 µM.
The figure for `O=C(NCCCCCCNc1ncnc2[nH]ccc12)Nc1ccccc1` is 11 µM; for `O=C(NCCc1cccc(Nc2ncnc3[nH]ccc23)c1)Nc1ccccc1` it is 12 µM; for `O=C(Nc1cccc(C2CCCN(c3ncnc4[nH]ccc34)C2)c1)c1ccccc1` (stereo unspecified) it is 4.9 µM.
The compound `O=C(NCCCCCNc1ncnc2[nH]ccc12)Nc1ccccc1` had a half-maximal inhibitory concentration (IC50) of 16 µM. This IC50 is about 3.3-fold higher than that of the compound before.
Turning to `CC(C)(C)c1ccccc1NC(=O)Nc1cccc(C2CCCN(c3ncnc4[nH]ccc34)C2)c1` (racemic), the 50% inhibitory concentration (IC50) stood at 0.14 µM.
Compound `O=C(Nc1cccc(C2CCCN(c3ncnc4[nH]ccc34)C2)c1)Nc1ccccc1N1CCCCC1` (racemic) had a 50% inhibitory concentration (IC50) of 0.55 µM.
As for `O=C(NCCCC1CCCN(c2ncnc3[nH]ccc23)C1)Nc1ccccc1` (racemic), the half-inhibitory concentration (IC50) was found to be 2 µM.
Under `O=C(Nc1cccc(C2CCCN(c3ncnc4[nH]ccc34)C2)c1)Nc1ccccc1C(F)(F)F` (stereo unspecified) stands 0.46 µM; under `O=C(Nc1cccc(C2CCCN(c3ncnc4[nH]ccc34)C2)c1)Nc1ccccc1C1CC1` (racemic), 0.2 µM; under `O=C(Nc1cccc(Cl)c1)Nc1cccc(C2CCCN(c3ncnc4[nH]ccc34)C2)c1` (stereo unspecified), 1.8 µM.
Consider `O=c1c(Nc2ccccc2)c(Nc2cccc(C3CCCN(c4ncnc5[nH]ccc45)C3)c2)c1=O` (stereo unspecified), for which 44 µM corresponded to half-maximal inhibition (IC50).
Consider `O=C(Nc1ccc(F)cc1)Nc1cccc(C2CCCN(c3ncnc4[nH]ccc34)C2)c1` (stereo unspecified), for which the half-inhibitory concentration (IC50) is 1.3 µM.
The figure for `N#C/N=C(\Nc1ccccc1)Nc1cccc(C2CCCN(c3ncnc4[nH]ccc34)C2)c1` (stereo unspecified) is 68 µM; for `O=S(=O)(Nc1cccc(C2CCCN(c3ncnc4[nH]ccc34)C2)c1)c1ccccc1` (stereo unspecified) it is 19 µM.
Under `O=C(Nc1cccnc1)Nc1cccc(C2CCCN(c3ncnc4[nH]ccc34)C2)c1` (stereo unspecified) stands 3.2 µM.
As for `O=C(Cc1ccccc1)Nc1cccc(C2CCCN(c3ncnc4[nH]ccc34)C2)c1` (stereo unspecified), the half-maximal inhibitory concentration (IC50) was determined as 45 µM.
Compound `O=C(Nc1cccc(C2CCCN(c3ncnc4[nH]ccc34)C2)c1)Nc1ccccn1` (stereo unspecified) had an IC50 of 2.7 µM.
Under `O=C(NCCC#CCCNc1ncnc2[nH]ccc12)Nc1ccccc1` stands 19 µM; under `O=C(Nc1ccc(Cl)cc1)Nc1cccc(C2CCCN(c3ncnc4[nH]ccc34)C2)c1` (stereo unspecified), 2.3 µM; under `O=C(Nc1cccc(C2CCCN(c3ncnc4[nH]ccc34)C2)c1)Nc1ccccc1C1CCCC1` (racemic), 0.1 µM.
